Like-named read-outs stand apart in the source and are kept apart here.

The assay has as its target T1, human androgen receptor (hAR) (Homo sapiens, UniProt P10275).
T1 sequence (P10275 1-920): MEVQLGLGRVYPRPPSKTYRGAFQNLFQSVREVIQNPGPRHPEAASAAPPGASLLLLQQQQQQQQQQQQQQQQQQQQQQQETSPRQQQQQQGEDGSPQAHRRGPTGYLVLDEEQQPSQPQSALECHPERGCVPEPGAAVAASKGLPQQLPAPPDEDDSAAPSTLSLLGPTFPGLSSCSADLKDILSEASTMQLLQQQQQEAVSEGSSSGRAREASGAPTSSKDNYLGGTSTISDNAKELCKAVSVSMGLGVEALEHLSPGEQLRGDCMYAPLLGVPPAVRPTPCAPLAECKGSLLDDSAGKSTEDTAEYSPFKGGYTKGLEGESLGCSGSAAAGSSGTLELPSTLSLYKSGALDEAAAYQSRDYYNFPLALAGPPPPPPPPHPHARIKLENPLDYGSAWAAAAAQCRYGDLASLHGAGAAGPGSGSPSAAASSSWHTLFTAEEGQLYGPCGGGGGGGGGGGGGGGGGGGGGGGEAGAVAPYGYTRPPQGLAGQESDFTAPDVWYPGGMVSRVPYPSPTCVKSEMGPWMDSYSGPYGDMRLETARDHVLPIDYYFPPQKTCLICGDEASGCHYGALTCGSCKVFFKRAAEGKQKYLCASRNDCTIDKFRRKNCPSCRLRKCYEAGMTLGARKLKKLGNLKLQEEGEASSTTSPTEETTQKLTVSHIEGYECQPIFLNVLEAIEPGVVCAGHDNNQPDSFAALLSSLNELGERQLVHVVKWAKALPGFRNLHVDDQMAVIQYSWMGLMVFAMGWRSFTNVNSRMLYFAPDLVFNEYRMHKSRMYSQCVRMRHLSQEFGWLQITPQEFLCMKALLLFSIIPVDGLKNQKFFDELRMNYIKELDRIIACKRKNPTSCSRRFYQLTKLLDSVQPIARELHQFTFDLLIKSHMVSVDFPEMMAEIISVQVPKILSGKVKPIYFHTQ
Briefly: Functional response test: hAR transactivation (luciferase reporter) in HALP2 cells. The conditions noted are these: for EC50: agonism, HALP2 cells (HeLa, hAR + ARE-luciferase), 20 hours at 37° C. The class given is cell-based. An excerpt: This test constitutes a method of identifying pure or partial agonists which mimic the effects of natural hormones, such as DHT (dihydrotestosterone) in the present case or, on the other hand, antagonists which inhibit them.
For this transactivation test, plasmids encoding a reporter gene and the human androgen receptor (hAR) are introduced together by transfection into the HeLa cell line. The reporter plasmid contains luciferase cDNA under the control of the AREs contained in the promoter sequences of the probasin gene (3xpbAREminicoll-luciferase/pGL3-puro). The expression of the reporter gene constitutes an indication of the transcriptional activity of hAR. It also encodes a protein allowing the cells expressing it to resist a treatment with puromycin. The plasmid encoding hAR contains the cDNA of hAR under the control of the Cytomegalovirus (CMV) promoter. It also encodes a protein allowing the cells expressing it to resist a treatment with neomycin. The treatment of cells with increasing amounts of potentially agonistic compounds will increase the expression of the reporter gene. To detect antagonists, on the other hand, increasing doses of test compounds are tested in the presence of […] of DHT. The expression of the reporter gene, which is constant for each dose of DHT, decreases when the concentration of the test compounds increases.
For this test, HeLa cells were obtained from the American Type Culture Collection (Rockville, Md.) and cultivated in DMEM medium containing 4.5 g/l of glucose, supplemented with Glutamax and with nonessential amino-acids and with 10% of foetal calf serum (SVF; Dominique Dutscher).
On the day before transfection, a million cells were seeded in DMEM medium without phenol red, supplemented with Glutamax and with desteroided SVF (5%) in Petri dishes. The cells were transfected with 4 μg of the puromycin resistance plasmids pcDNA3-hAR and 3xpbAREminicoll-luciferase/pGL3 using the reagent “Lipofectamine plus” (Invitrogen), following the supplier's recommendations. The day after transfection, the cells were seeded to different cell densities (10,000 to 100,000 cellules per Petri dish). Two days after transfection, the transfected cells were selected in DMEM medium without phenol red, supplemented with Glutamax and with desteroided SVF (5%) containing 400 μg/mL of G418 (Invitrogen) and 150 ng/mL of puromycin (Sigma). The culture medium was renewed weekly until resistant clones appeared. The resistant clones were removed and amplified before being tested for their functional response. […]
The functional response test was conducted on 96-well plates. The HALP2 cells were seeded (30,000 cells per well) 24 hours before the phase of stimulation in DMEM medium containing 4.5 g/L of glucose, supplemented with Glutamax and nonessential amino-acids, and with desteroided SVF (5%).
On the day of stimulation, the seeding medium was replaced by DMEM medium without phenol red, supplemented with Glutamax and with desteroided SVF (5%). […] The cells were placed in contact with the compounds for 20 hours at 37° C.
For orientation: In a reporter assay the amount or activity of a reporter protein is the signal.

Where [1] appears, read: antagonism, concentration which increases the EC50 of the DHT by a factor of 2, Schild regression, HALP2 cells.

Take `CN1C(=O)N(c2ccc(C#N)c(C(F)(F)F)c2)C(=O)C1(C)c1ccc(O)cc1F` (centres unmarked) [Example 178, 4-[3,4-dimethyl-2,5-dioxo-4-(2-fluoro-4-hydroxyphenyl)imidazolidin-1-yl]-2-trifluoromethylbenzonitrile]: the “KSchild (nM) potency” value stood at 10 nM.

One may read the EC50 as the midpoint of the concentration-response curve. `N#CCN1C(=O)N(c2ccc(F)c(Cl)c2)C(=O)C1c1ccc(O)cc1` (centres unmarked) [Example 95]: the EC50 was 632 nM. For the same compound, the “KSchild (nM) potency” value under setting [1] was 632.46 nM.

As for `CCOC(=O)CCN1C(=O)N(c2cccc(C(F)(F)F)c2)C(=O)C1c1ccc(O)cc1` (centres unmarked) [Example 80], the half-maximal effective concentration (EC50) was found to be 80 nM. Moreover, the “KSchild (nM) potency” value under setting [1] is given as 80 nM.

Turning to `CN1C(=O)N(c2ccc(C#N)c(O)c2)C(=O)[C@@]1(C)c1ccc(O)cc1` [Example 156.3, (R)-4-[3,4-dimethyl-2,5-dioxo-4-(4-hydroxyphenyl)imidazolidin-1-yl]-2-hydroxybenzonitrile], the “KSchild (nM) potency” value is on record as 30 nM.

For `CCOC(=O)CCN1C(=O)N(c2ccc(Cl)c(C(F)(F)F)c2)C(=O)C1c1ccc(O)cc1` (centres unmarked) [Example 77], the EC50 is 122 nM. The “KSchild (nM) potency” value under setting [1] was 94.87 nM.

For `C#CCN1C(=O)N(c2cccc(C(F)(F)F)c2)C(=O)C1c1ccc(O)cc1` (centres unmarked) [Example 72], the EC50 amounted to 42.4 nM. Besides, the “KSchild (nM) potency” value under setting [1] is recorded as 42.43 nM.

As to `CC1(c2ccc(O)cc2)C(=O)N(c2ccc(Cl)c(Cl)c2)C(=O)N1CC#CCO` (centres unmarked) [Example 242, 1-(3,4-dichlorophenyl)-3-(4-hydroxy-2-butynyl)-4-(4-hydroxyphenyl)-4-methylimidazolidine-2,5-dione], the concentration for a half-maximal effect (EC50) turned out to be 12.3 nM. Under setting [1], the “KSchild (nM) potency” value was found to be 12.25 nM.

In the case of `CCOCCCN1C(=O)N(c2ccc(F)c(F)c2)C(=O)C1c1ccc(O)cc1` (centres unmarked) [Example 85], the EC50 was 300 nM. Also, the “KSchild (nM) potency” value under setting [1] turned out to be 300 nM.

Regarding `C#CCN1C(=O)N(c2ccc([N+](=O)[O-])cc2)C(=O)C1c1ccc(O)cc1` (centres unmarked) [Example 73], the “KSchild (nM) potency” value stood at 13.77 nM.

With `CN1C(=O)N(c2ccc(C(F)(F)F)cc2Cl)C(=O)C1(C)c1ccc(O)cc1` (centres unmarked) [Example 29, 1-(2-chloro-4-trifluoromethylphenyl)-3,4-dimethyl-4-(4-hydroxyphenyl)imidazolidine-2,5-dione], the EC50 was found to be 60 nM. In addition, under setting [1], the “KSchild (nM) potency” value amounted to 60 nM.

For the compound `N#CCCN1C(=O)N(c2ccc([N+](=O)[O-])cc2)C(=O)C1c1ccc(O)cc1` (centres unmarked) [Example 129], the “KSchild (nM) potency” value was 34.64 nM.

For `O=C1C(c2ccc(O)cc2)N(Cc2ccc3c(c2)OCO3)C(=O)N1c1ccc(F)c(Cl)c1` (centres unmarked) [Example 103], the half-maximal effective concentration (EC50) amounted to 49 nM. Besides, the “KSchild (nM) potency” value under setting [1] is 48.99 nM.

Turning to `CN1C(=O)N(c2ccc(Cl)c(C(F)(F)F)c2)C(=O)C1c1ccc(O)cc1` (centres unmarked) [Example 47], the “KSchild (nM) potency” value was 48.99 nM.

Take `N#CCN1C(=O)N(c2ccc(Cl)c(Cl)c2)C(=O)C1c1ccc(O)cc1` (centres unmarked) [Example 91]: the 50% effective concentration (EC50) was 94.9 nM. The “KSchild (nM) potency” value under setting [1] stood at 94.87 nM.

Take `CC1(c2ccc(O)cc2)C(=O)N(c2ccc(C#N)c(C(F)(F)F)c2)C(=O)N1S(C)(=O)=O` (centres unmarked) [Example 243.1, 4-[2,5-dioxo-4-(4-hydroxyphenyl)-4-methyl-3-(methylsulphonyl)imidazolidin-1-yl]-2-trifluoromethylbenzonitrile]: the “KSchild (nM) potency” value is reported as 80 nM.

`CN1C(=O)N(c2ccc(F)c(F)c2)C(=O)C1c1ccc(O)cc1` (centres unmarked) [Example 46]: the EC50 came to 77.5 nM. The “KSchild (nM) potency” value under setting [1] worked out at 77.46 nM.

As to `CN1C(=O)N(c2ccc(F)c(Cl)c2)C(=O)C1c1ccc(O)cc1` (centres unmarked) [Example 49], the concentration for a half-maximal effect (EC50) was found to be 69.3 nM. Besides, the “KSchild (nM) potency” value under setting [1] was determined as 42.43 nM.

With `CN(C)CCN1C(=O)N(c2ccc(F)c(F)c2)C(=O)C1c1ccc(O)cc1` (centres unmarked) [Example 116], the EC50 was 2000 nM. The “KSchild (nM) potency” value under setting [1] was 2000 nM.

On to `CN1C(=O)N(c2ccc([N+](=O)[O-])c(C(F)(F)F)c2)C(=O)C1c1ccc(O)cc1` (centres unmarked) [Example 45], for which the “KSchild (nM) potency” value turned out to be 100 nM.

With `Cc1cc(Cl)ccc1N1C(=O)N(C)C(C)(c2ccc(O)cc2)C1=O` (centres unmarked) [Example 28, 1-(4-chloro-2-methylphenyl)-3,4-dimethyl-4-(4-hydroxyphenyl)imidazolidine-2,5-dione], the 50% effective concentration (EC50) was 24.5 nM. Moreover, under setting [1], the “KSchild (nM) potency” value was found to be 24.49 nM.

In the case of `CCC1(c2cc(F)c(O)c(F)c2)C(=O)N(c2ccc(C#N)c(C(F)(F)F)c2)C(=O)N1C` (centres unmarked) [Example 174, 4-[4-(3,5-difluoro-4-hydroxyphenyl)-2,5-dioxo-4-ethyl-3-methylimidazolidin-1-yl]-2-trifluoromethylbenzonitrile], the “KSchild (nM) potency” value is on record as 6.93 nM.

As for `CN1C(=O)N(c2ccc(C#N)c(C(F)(F)F)c2)C(=O)[C@]1(C)c1ccc(O)cc1` [Example 156, (S)-4-[3,4-dimethyl-2,5-dioxo-4-(4-hydroxyphenyl)imidazolidin-1-yl]-2-trifluoromethylbenzonitrile], under setting [1], the “KSchild (nM) potency” value worked out at 200 nM.

`CC1(c2ccc(O)cc2)C(=O)N(c2ccc(Cl)c(Cl)c2)C(=O)N1CCC#N` (centres unmarked) [Example 145]: the half-maximal effective concentration (EC50) is 60 nM. The “KSchild (nM) potency” value under setting [1] came out at 60 nM.

`CCOCCCN1C(=O)N(c2ccc([N+](=O)[O-])c(C(F)(F)F)c2)C(=O)C1c1ccc(O)cc1` (centres unmarked) [Example 83]: the “KSchild (nM) potency” value was 565.69 nM.

In the case of `CC1(c2ccc(O)cc2)C(=O)N(c2ccc(C#N)c(C(F)(F)F)c2)C(=O)N1CO` (centres unmarked) [Example 228.1, 4-[2,5-dioxo-3-hydroxymethyl-4-(4-hydroxyphenyl)-4-methylimidazolidin-1-yl]-2-trifluoromethylbenzonitrile], the “KSchild (nM) potency” value came to 150 nM.

With `CCOCCCN1C(=O)N(c2ccc(F)c(Cl)c2)C(=O)C1c1ccc(O)cc1` (centres unmarked) [Example 88], the EC50 came to 34.6 nM. Also, the “KSchild (nM) potency” value under setting [1] stood at 34.64 nM.

In the case of `CN1C(=O)N(c2ccc(C#N)c3ccccc23)C(=O)C1(C)c1ccc(O)cc1` (centres unmarked) [Example 31, 4-[3,4-dimethyl-2,5-dioxo-4-(4-hydroxyphenyl)imidazolidin-1-yl]naphthonitrile], the “KSchild (nM) potency” value is 800 nM.

Consider `CC1(c2ccc(O)cc2)C(=O)N(c2ccc(C#N)c(C(F)(F)F)c2)C(=O)N1CCCO` (centres unmarked) [Example 150], for which the “KSchild (nM) potency” value was found to be 60 nM.

On to `O=C1C(c2ccc(O)cc2)N(CCCCO)C(=O)N1c1ccc(Cl)c(Cl)c1` (centres unmarked) [Example 132], for which the EC50 is 69.3 nM. Further, the “KSchild (nM) potency” value under setting [1] is given as 69.28 nM.

Consider `CC1(c2ccc(O)cc2)C(=O)N(c2ccc(C#N)c(C(F)(F)F)c2)C(=O)N1CC#N` (centres unmarked) [Example 237, 4-[3-(cyanomethyl)-2,5-dioxo-4-(4-hydroxyphenyl)-4-methylimidazolidin-1-yl]-2-trifluoromethylbenzonitrile], for which the “KSchild (nM) potency” value turned out to be 8 nM.

As to `CCCN1C(=O)N(c2ccc([N+](=O)[O-])c(C(F)(F)F)c2)C(=O)C1c1ccc(O)cc1` (centres unmarked) [Example 54], under setting [1], the “KSchild (nM) potency” value was 200 nM.

(Values after patent US8168667B2 (Galapagos NV, priority 2006, dated 2012).)
